In patent US20220380430A1, “Non-Transgenic Functional Rescue of Neuropeptides” (Worcester Polytechnic Institute, priority 2021, published 2022):
“Also recorded” adds a separate entry of the source. No end group written: not given here.

Tests used:
FRPR-16 = molecular target: T1, FRPR-16 (Caenorhabditis elegans, UniProt Q21957); assay: In vitro GPCR activation assay (CHO-K1 cells, aequorin, human Gα16), FRPR-16; assay type: cell-based, C. elegans; conditions: calcium/aequorin luminescence in transfected CHO-K1 cells
T1 sequence (Q21957 1-340): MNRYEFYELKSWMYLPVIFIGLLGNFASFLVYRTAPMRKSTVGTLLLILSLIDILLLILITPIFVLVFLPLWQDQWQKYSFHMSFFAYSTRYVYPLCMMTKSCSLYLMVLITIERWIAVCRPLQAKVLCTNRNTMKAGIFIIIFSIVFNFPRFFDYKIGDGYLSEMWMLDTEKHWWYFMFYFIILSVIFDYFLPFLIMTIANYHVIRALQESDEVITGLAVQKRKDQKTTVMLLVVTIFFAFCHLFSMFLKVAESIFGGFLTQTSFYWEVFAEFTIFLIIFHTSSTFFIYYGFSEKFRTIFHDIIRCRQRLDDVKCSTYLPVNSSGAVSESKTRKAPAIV
Protocol: (§1) The GPCR activation assay was performed as previously described Van Sinay, E. et al. Proc. Natl Acad. Sci. USA 114, E4065-e4074 (2017) and Peymen, K. et al. PLoS Genet. 15, e1007945 (2019). Briefly, npr-10 and frpr-16 cDNAs were cloned into the pcDNA3.1 TOPO expression vector (Thermo Fisher Scientific). A CHO-K1 cell line (PerkinElmer, ES-000-A24) stably expressing apo-aequorin targeted to the mitochondria (mtAEQ) and human Gα16 was transiently transfected with the receptor cDNA construct or the empty pcDNA3.1 vector using Lipofectamine LTX and Plus reagent (Thermo Fisher Scientific). Cells were shifted to 28° C. one day later and allowed to incubate for 24 h. On the day of the assay, cells were collected in BSA medium (DMEM/Ham's F12 with 15 mM HEPES, without phenol red, 0.1% BSA) and loaded with […] coelenterazine h (Thermo Fisher Scientific) for 4 h at room temperature. The incubated cells were then added to synthetic peptides dissolved in DMEM/BSA, and luminescence was measured for 30 s at […] using a Mithras LB940 (Berthold Technologies) or MicroBeta LumiJet luminometer (PerkinElmer). After 30 s of readout, 0.1% triton X-100 was added to lyse the cells, resulting in a maximal calcium response that was measured for 10 s. After initial screening, concentration-response curves were constructed for HPLC-purified FLP-3 peptides by subjecting the transfected cells to each peptide in a concentration range from 1 pM to 10 μM. Cells transfected with an empty vector were used as a negative control. Assays were performed in triplicate on at least two independent days. Concentration-response curves were fitted using Prism v. 7 (nonlinear regression analysis with a sigmoidal concentration-response equation).

NPR-10B = molecular target: T2, NPR-10B (Caenorhabditis elegans, UniProt Q6EUU1); assay: In vitro GPCR activation assay (CHO-K1 cells, aequorin, human Gα16), NPR-10B; assay type: cell-based, C. elegans; conditions: title: NPR-10B; calcium/aequorin luminescence in transfected CHO-K1 cells
T2 sequence (Q6EUU1 1-362): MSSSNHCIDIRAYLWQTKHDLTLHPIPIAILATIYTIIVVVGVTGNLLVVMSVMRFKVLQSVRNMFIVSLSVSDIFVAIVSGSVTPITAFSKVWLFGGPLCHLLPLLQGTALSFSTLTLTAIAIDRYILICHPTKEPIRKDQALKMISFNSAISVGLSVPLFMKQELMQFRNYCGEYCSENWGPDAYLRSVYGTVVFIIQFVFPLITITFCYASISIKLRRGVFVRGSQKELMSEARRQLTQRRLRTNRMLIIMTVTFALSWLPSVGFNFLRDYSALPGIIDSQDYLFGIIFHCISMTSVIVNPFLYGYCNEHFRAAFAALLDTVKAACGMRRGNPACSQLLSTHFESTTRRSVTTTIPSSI
Protocol: Using Chinese hamster ovarian (CHO) cell cultures stably expressing the promiscuous G protein, Gα16, and the calcium reporter, aequorin, it was observed that both isoforms of NPR-10 are activated by seven of the ten FLP-3 peptides, with half-maximal effective concentrations (EC50) in the nM range (FIG. 14A-FIG. 14H, Table V). […] This peptide contains an R-to-K mutation within the C-terminal motif, which may explain the lack of receptor activation.
as §1

flp-3 lof males [1] = assay: Drop avoidance assay to ascr #8 after FLP-3 peptide rescue-by-feeding; assay type: in vivo, C. elegans; conditions: flp-3 lof males raised on peptide; 1 μM ascr #8; in words
Protocol: To identify which FLP-3 peptides are required for male avoidance of ascr #8, a peptide feeding approach https://www.nature.com/articles/s42003-021-02547-7-ref-CR59 was adopted, similar to RNAi feeding (FIG. 16A). Using Gateway Cloning technology, FLP-3 peptide coding sequences were inserted into a bacterial expression vector. As a control, first the FLP-3 peptides were tested that are still encoded in the ok3625 allele which are insufficient to drive the proper ascr #8 response in vivo: FLP-3-1 (SPLGTMRFamide) (SEQ ID NO: 10) and FLP-3-4 (NPLGTMRFamide) (SEQ ID NO: 11). Then flp-3 lof animals were reared on lawns of bacteria expressing the rescue constructs, and their progeny were assayed for avoidance (FIG. 16B-FIG. 16D).
Assays were performed as described previously in Chute, C. D. & Srinivasan, J. Semin. Cell Dev. Biol. 33, 18-24 (2014); Chute, C. D. et al. Nat. Commun. 10, 3186 (2019); and Hilliard, M. A. et al., EMBO J. 23, 1101-1111 (2004). Fifty to sixty L4 worms were segregated by sex and stored at 20° C. for 5 h to overnight to be assayed as young adults. One to four hours prior to the assay, the lids of unseeded plates were tilted to allow any excess moisture to evaporate off the plates. At the time of the assay, 10 or more animals were transferred onto each of the dried, unseeded plates. A drop of either water or 1 μM ascr #8 was placed on the tail of forward moving animals, and their response was scored as either an avoidance response, or no response. The total number of avoidances was divided by the total number of drops to generate an avoidance index for that plate. This was repeated for at least 10 plates over at least three different days.
SCRAMBLE control or FLP-3 peptide constructs were grown overnight in LB media containing […] ampicillin at 37° C. and diluted to an OD600 of 1.0 prior to seeding on NGM plates containing […] ampicillin and 1 mM IPTG. The 75 μL lawn was left to dry and grow overnight at room temperature before three L4 animals were placed on the plates. Males were selected for testing in the same manner as described above but were isolated onto plates also seeded with the same peptide on which they had been reared. Animals were then assayed using either the avoidance assay or single worm assay.

flp-3 lof males [2] = assay: Single worm attraction assay (SWAA) to ascr #8 after FLP-3 peptide rescue-by-feeding; assay type: in vivo, C. elegans; conditions: flp-3 lof males raised on peptide; in words
Protocol: The outer forty wells of a 48-well suspension culture plate (Olympus Plastics, Cat #: 25-103) were seeded with 200 μL of standard NGM agar. To prepare the plates for the assay, they were acclimated to room temperature, at which point each well was seeded with 65 μL of OP50 E. coli. The assay plates were then transferred to a 37° C. incubator with the lid tilted for 4 h to allow the bacterial culture to dry on the agar. Once the bacterial culture dried, the lid was replaced the plate was stored at 20° C. until used in the assay. Fifty to sixty L4 worms were segregated by sex and stored at 20° C. for 5 h to overnight to be assayed as young adults. 0.8 μL of either vehicle control or ascaroside #8 was placed in the center of the well corresponding to that condition within the quadrant being tested, following a random block design (FIG. 11A). A single worm was placed in each of the 10 wells to be assayed, and the plate was transferred to a light source and camera and recorded for 15 m. This process was repeated for all four quadrants. Each strain and sex were assayed over five plates assayed on at least three different days. Raw dwell time values were calculated by subtracting the time a worm exited the cue (center of the well in spatial controls), from the time it entered, as in the SRA. This was determined per visit, and the average dwell time was calculated for each animal in the quadrant. Averages of the four-quadrant means were determined per plate, and a minimum of five plates were assayed per strain/condition. The mean raw dwell time across five plates was calculated and used for statistical analyses and graphical display. The average dwell time in the ascaroside was divided by the average dwell time within the vehicle control per plate to generate a fold-change. To transform the data, the log of this fold-change was taken, and the average log(fold-change) was used for statistical analyses and graphical display. […]

ins-6 lof worms = assay: NaCl chemotaxis assay after rescue-by-feeding; assay type: in vivo, C. elegans; conditions: 750 mM NaCl, in words
Protocol: All animals were maintained on bacterial lawns of OP50 E. coli, at 20° C., on NGM agar plates until the start of experiments. Mutant or control animals were transferred onto lawns of DH5α E. coli expressing either scramble peptide or the rescue peptide-of-interest on NGM plates containing […] AMP and 1 mM IPTG. Animals were reared on the peptide-expressing lawns for at least 48 hours at 20° C. before assaying for rescue of mutant phenotype at the appropriate developmental stage.
A salt chemotaxis assay was performed as previously described in Leinwand, S. G. & Chalasani, S. H. Nature neuroscience 16, 1461-1467 (2013); Bargmann, C. I. & Horvitz, H. R. Neuron 7, 729-742 (1991) to test the functionality of ins-6 after rescue-by-feeding. Wild-type (N2) and ins-6 worms were fed either scramble or INS-6 peptide passing 4-6 L4 larval onto an NGM plate containing […] AMP and 1 mM IPTG with 75 μL of peptide OD600=1.0. These worms were grown at 20° C. for about 4 days until the progeny of the initial L4 worms were young adults.
The day prior to testing, a thin, 10 mL layer of agar was added to 10 cm petri dishes to generate a 10 cm Chemotaxis Plates (5 mM KPO4 (pH 6.0), 1 μM MgSO4, 1 μM CaCl2), 20 g/L agar, and 8 g/L Difco Nutrient Broth). To prepare the “high salt” plates, 750 mM NaCl was added prior to plate pouring. The high salt plate were stored at 4° C. for up to one month, while the Chemotaxis Plates were made one day prior to testing. To create the high and low salt plugs, the back end of a Pasteur pipette was used to punch a 5 mm plug out of each plate. These 2 plugs were placed on opposite edges of the plate. A 10 mm radius was be drawn around the location of the plugs (FIG. 1). Plates were stored, lightly covered, overnight at room temperature (˜20° C., <40% humidity). […]
Young adult hermaphrodites are tested in the Chemotaxis Assay with no more than three replicates per day, over a minimum of three days, with 100-200 worms/assay plate. The […] Chemotaxis Index (CI) was calculated as follows: […]

| Substance | EC50 (FRPR-16) | EC50 (NPR-10B) | rescue of avoidance phenotype to ascr #8 (Avoidance Index) (flp-3 lof males [1]) | rescue of attraction to ascr #8 (dwell time, log(fold-change)) (flp-3 lof males [2]) | rescue of NaCl chemotaxis (ins-6 lof worms; ins-6 lof worms fed peptide) | chemotaxis on overexpression by feeding (ins-6 lof worms; wild-type animals fed INS-6) |
| --- | --- | --- | --- | --- | --- | --- |
| NPENDTPFGTMRF-NH2 [FLP-3-9, NPENDTPFGTMRFamide] | 88.3 nM | 760 nM | lack of avoidance to ascr #8; also recorded: undo the Avoidance phenotype associated with the flp-3 mutation | full rescue of their ability to be attracted to the cue; also recorded: restores the attraction to wild-type | – | – |
| TPLGTMRF-NH2 [FLP-3-2, TPLGTMRFamide] | 31.7 nM | 366 nM | able to abolish the avoidance phenotype; also recorded: undo the Avoidance phenotype associated with the flp-3 mutation | not able to restore the animal's ability to be attracted to ascr #8; also recorded: seems to make the animals less attracted to the cue | – | – |
| VPAPGETRACGRKLISLVMAVCGDLCNPQEGKDIATECCGNQCSDDYIRSACCP-NH2 (cysteine pairing not given here) [INS-6] | – | – | – | – | complete rescue of NaCl chemotaxis; also recorded: restores the Chemotaxis Index at a level similar to the canonical transgenic rescue; also recorded: complete restoration of attraction to high salt concentration | does not result in changes in attraction towards 750 mM NaCl; also recorded: does not affect chemotaxis in wild type animals; also recorded: slight defects in CI towards high salt |
